Reference: publication PMC10041525, “New Dual Inhibitors of Bacterial Topoisomerases with Broad-Spectrum Antibacterial Activity and In Vivo Efficacy against Vancomycin-Intermediate Staphylococcus aureus” (Journal of Medicinal Chemistry, 2023)
In brackets after ≈: the same amount, converted by molar mass. Like-named read-outs stand apart in the source and are kept apart here.

Columns and labels:
[1] = test system: 100 A. baumannii strains (50 MDR, 50 non-MDR); experiment: MIC broth microdilution at IHMA Europe, panel of 100 strains; format: cell-based; conditions: for MIC / MIC50 / MIC90: Acinetobacter baumannii; for MIC50: read-out: MIC 50; for MIC90: read-out: MIC 90
[2] = test system: Haemophilus influenzae (n = 14); experiment: MIC broth microdilution at IHMA Europe; format: cell-based, H. influenzae; conditions: for MIC: Haemophilus influenzae, read-out: MIC

## C[C@@H](O)[C@H]1C(=O)N2C(C(=O)O)=C(SCCNC=N)C[C@H]12 [Imipenem, imipenem]
[1]; A. baumannii IHMA 2156634, Turkey 2020, MDR, read-out: MIC
  MIC: > 16 µg/mL
[1]; A. baumannii IHMA 2156709, Turkey 2020, MDR, read-out: MIC
  MIC: > 16 µg/mL
[1]; A. baumannii IHMA 2157614, Australia 2020, Non-MDR, read-out: MIC
  MIC: ≤ 0.25 µg/mL
[1]; A. baumannii IHMA 2177232, Lithuania 2020, MDR, read-out: MIC
  MIC: > 16 µg/mL
[1]; A. baumannii IHMA 2177489, Lithuania 2020, MDR, read-out: MIC
  MIC: > 16 µg/mL
[1]; A. baumannii IHMA 2178574, Ukraine 2020, Non-MDR, read-out: MIC
  MIC: ≤ 0.25 µg/mL
[1]; A. baumannii IHMA 2180134, Malaysia 2020, Non-MDR, read-out: MIC
  MIC: ≤ 0.25 µg/mL
[1]; A. baumannii IHMA 2180142, Malaysia 2020, MDR, read-out: MIC
  MIC: 16 µg/mL (≈ 53.4 µM)
[1]; A. baumannii IHMA 2181370, Morocco 2020, MDR, read-out: MIC
  MIC: > 16 µg/mL
[1]; A. baumannii IHMA 2183729, Argentina 2020, MDR, read-out: MIC
  MIC: 16 µg/mL (≈ 53.4 µM)
[1]; A. baumannii IHMA 2183849, Argentina 2020, Non-MDR, read-out: MIC
  MIC: ≤ 0.25 µg/mL
[1]; A. baumannii IHMA 2184382, Japan 2020, Non-MDR, read-out: MIC
  MIC: ≤ 0.25 µg/mL
[1]; A. baumannii IHMA 2193375, Venezuela 2020, MDR, read-out: MIC
  MIC: > 16 µg/mL
[1]; A. baumannii IHMA 2193485, Venezuela 2020, Non-MDR, read-out: MIC
  MIC: ≤ 0.25 µg/mL
[1]; A. baumannii IHMA 2193607, Venezuela 2020, MDR, read-out: MIC
  MIC: > 16 µg/mL
[1]; A. baumannii IHMA 2195460, Italy 2020, MDR, read-out: MIC
  MIC: > 16 µg/mL
[1]; A. baumannii IHMA 2196914, South Africa 2020, MDR, read-out: MIC
  MIC: > 16 µg/mL
[1]; A. baumannii IHMA 2196959, South Africa 2020, MDR, read-out: MIC
  MIC: > 16 µg/mL
[1]; A. baumannii IHMA 2203763, Spain 2020, MDR, read-out: MIC
  MIC: > 16 µg/mL
[1]; A. baumannii IHMA 2205144, Korea, South 2020, MDR, read-out: MIC
  MIC: > 16 µg/mL
[1]; A. baumannii IHMA 2206459, Taiwan 2020, MDR, read-out: MIC
  MIC: > 16 µg/mL
[1]; A. baumannii IHMA 2206507, Taiwan 2020, Non-MDR, read-out: MIC
  MIC: ≤ 0.25 µg/mL
[1]; A. baumannii IHMA 2212575, Hungary 2020, Non-MDR, read-out: MIC
  MIC: ≤ 0.25 µg/mL
[1]; A. baumannii IHMA 2215307, Hong Kong 2020, Non-MDR, read-out: MIC
  MIC: ≤ 0.25 µg/mL
[1]; A. baumannii IHMA 2216586, Taiwan 2020, MDR, read-out: MIC
  MIC: > 16 µg/mL
[1]; A. baumannii IHMA 2223200, Colombia 2020, Non-MDR, read-out: MIC
  MIC: ≤ 0.25 µg/mL
[1]; A. baumannii IHMA 2224017, Panama 2020, MDR, read-out: MIC
  MIC: > 16 µg/mL
[1]; A. baumannii IHMA 2224303, Panama 2020, Non-MDR, read-out: MIC
  MIC: ≤ 0.25 µg/mL
[1]; A. baumannii IHMA 2231797, Greece 2020, MDR, read-out: MIC
  MIC: > 16 µg/mL
[1]; A. baumannii IHMA 2233099, Guatemala 2020, MDR, read-out: MIC
  MIC: > 16 µg/mL
[1]; A. baumannii IHMA 2233430, Kazakhstan 2020, MDR, read-out: MIC
  MIC: > 16 µg/mL
[1]; A. baumannii IHMA 2233548, Kazakhstan 2020, Non-MDR, read-out: MIC
  MIC: ≤ 0.25 µg/mL
[1]; A. baumannii IHMA 2238964, Thailand 2020, MDR, read-out: MIC
  MIC: > 16 µg/mL
[1]; A. baumannii IHMA 2239052, Thailand 2020, Non-MDR, read-out: MIC
  MIC: ≤ 0.25 µg/mL
[1]; A. baumannii IHMA 2261047, Belgium 2020, MDR, read-out: MIC
  MIC: > 16 µg/mL
[1]; A. baumannii IHMA 2261633, Canada 2020, Non-MDR, read-out: MIC
  MIC: ≤ 0.25 µg/mL
[1]; A. baumannii IHMA 2274234, South Africa 2020, MDR, read-out: MIC
  MIC: > 16 µg/mL
[1]; A. baumannii IHMA 2274364, South Africa 2020, MDR, read-out: MIC
  MIC: > 16 µg/mL
[1]; A. baumannii IHMA 2275237, Chile 2020, Non-MDR, read-out: MIC
  MIC: ≤ 0.25 µg/mL
[1]; A. baumannii IHMA 2275751, Jordan 2020, MDR, read-out: MIC
  MIC: > 16 µg/mL
[1]; A. baumannii IHMA 2316205, United States 2020, MDR, read-out: MIC
  MIC: > 16 µg/mL
[1]; MDR n = 50, read-out: MAX (maximum MIC; all strains inhibited)
  MIC: > 16 µg/mL
[1]; MDR n = 50
  MIC50: > 16 µg/mL
  MIC90: > 16 µg/mL
  Percentage I: 0%
  Percentage R: 100%
  Percentage S: 0%
[1]; MDR n = 50, read-out: MIN (minimum MIC)
  MIC: 16 µg/mL (≈ 53.4 µM)
[1]; all isolates n = 100, read-out: MAX (maximum MIC; all strains inhibited)
  MIC: > 16 µg/mL
[1]; all isolates n = 100
  MIC50: 0.5 µg/mL (≈ 1.67 µM)
  MIC90: > 16 µg/mL
[1]; all isolates n = 100, read-out: MIN (minimum MIC)
  MIC: ≤ 0.25 µg/mL
[1]; non-MDR n = 50, read-out: MAX (maximum MIC)
  MIC: 0.5 µg/mL (≈ 1.67 µM)
[1]; non-MDR n = 50
  MIC50: ≤ 0.25 µg/mL
  MIC90: ≤ 0.25 µg/mL
  Percentage I: 0%
  Percentage R: 0%
  Percentage S: 100%
[1]; non-MDR n = 50, read-out: MIN (minimum MIC)
  MIC: ≤ 0.25 µg/mL
[1]; all n = 100, CLSI breakpoints
  Percentage I: 0%
  Percentage R: 50%
  Percentage S: 50%
[2]; H. influenzae IHMA N° 1227715
  MIC: 1 µg/mL (≈ 3.34 µM)
[2]; H. influenzae IHMA N° 1241620
  MIC: 0.5 µg/mL (≈ 1.67 µM)
[2]; H. influenzae IHMA N° 1244149
  MIC: 0.5 µg/mL (≈ 1.67 µM)
[2]; H. influenzae IHMA N° 1249803
  MIC: 0.25 µg/mL (≈ 0.835 µM)
[2]; H. influenzae IHMA N° 1254355
  MIC: 0.5 µg/mL (≈ 1.67 µM)
[2]; H. influenzae IHMA N° 1258580
  MIC: 0.5 µg/mL (≈ 1.67 µM)
[2]; H. influenzae IHMA N° 1262734
  MIC: 0.5 µg/mL (≈ 1.67 µM)
[2]; H. influenzae IHMA N° 1272723
  MIC: 0.5 µg/mL (≈ 1.67 µM)
[2]; H. influenzae IHMA N° 1286846
  MIC: 0.5 µg/mL (≈ 1.67 µM)
[2]; H. influenzae IHMA N° 1337530
  MIC: 1 µg/mL (≈ 3.34 µM)
[2]; H. influenzae IHMA N° 1440085
  MIC: 0.12 µg/mL (≈ 0.401 µM)
[2]; H. influenzae IHMA N° 1479509
  MIC: 0.5 µg/mL (≈ 1.67 µM)
[2]; H. influenzae IHMA N° 1952952
  MIC: 0.12 µg/mL (≈ 0.401 µM)
[2]; H. influenzae IHMA N° 2047461
  MIC: 0.5 µg/mL (≈ 1.67 µM)
[2]; MIC 0.5 µg/mL
  Cumulative % at MIC: 85.7%
  No. of isolates at MIC: 9
[2]; MIC 1 µg/mL
  Cumulative % at MIC: 100.0%
  No. of isolates at MIC: 2
